Data from ChEMBL document CHEMBL1687760, “Secondary integrase resistance mutations found in HIV-1 minority quasispecies in integrase therapy-naive patients have little or no effect on susceptibility to integrase inhibitors” (Antimicrob Agents Chemother, 2010).

Legend:
Assay type in all cases: functional
[1] = system: Human immunodeficiency virus 1; experiment: Antiviral activity against Human immunodeficiency virus 1 3B harboring integrase S119G mutant infected in human MT4 cells assessed as inhibition of virus induced cytopathic effect relative to wild type HIV1
[2] = system: Human immunodeficiency virus 1; experiment: Antiviral activity against Human immunodeficiency virus 1 3B harboring integrase E157Q mutant infected in human MT4 cells assessed as inhibition of virus induced cytopathic effect relative to wild type HIV1
[3] = system: Human immunodeficiency virus 1; experiment: Antiviral activity against Human immunodeficiency virus 1 clone 7 harboring integrase E11D, S17T, L45V, M50T, I72V, L74I, K111T, T125A relative to wild type HIV1
[4] = system: Human immunodeficiency virus 1; experiment: Antiviral activity against Human immunodeficiency virus 1 clone 13 harboring integrase E11D, S17T, L45V, M50T, I72V, L74I, K111T, S119G, T125A relative to wild type HIV1
[5] = system: Human immunodeficiency virus 1; experiment: Antiviral activity against Human immunodeficiency virus 1 clone 16 harboring integrase E11D, S17T, L45V, M50T, I72V, L74I, K111T, T125A relative to wild type HIV1
[6] = system: Human immunodeficiency virus 1; experiment: Antiviral activity against Human immunodeficiency virus 1 clone 19 harboring integrase E11D, S17T, L45V, M50T, I72V, L74I, T97A, K111T, S119G, T125A relative to wild type HIV1
[7] = system: Human immunodeficiency virus 1; experiment: Antiviral activity against Human immunodeficiency virus 1 clone 20 harboring integrase E11D, S17T, L45V, M50T, I72V, L74I, K111T, T125A, I217V relative to wild type HIV1
[8] = system: Human immunodeficiency virus 1; experiment: Antiviral activity against Human immunodeficiency virus 1 clone 3 harboring integrase S17N, I84I, T124N, T125A, M154I, S195C mutant gene relative to wild type HIV1
[9] = system: Human immunodeficiency virus 1; experiment: Antiviral activity against Human immunodeficiency virus 1 clone 14 harboring integrase S17N, T124N, T125A, M154I, S195C, V201I mutant gene relative to wild type HIV1
[10] = system: Human immunodeficiency virus 1; experiment: Antiviral activity against Human immunodeficiency virus 1 clone 2 harboring integrase R20K, A23V, E92G, T124N, I141V, G193E, V201I, T206S, I220V, D279G mutant gene relative to wild type HIV1
[11] = system: Human immunodeficiency virus 1; experiment: Antiviral activity against Human immunodeficiency virus 1 clone 3 harboring integrase R20K, A23V, T124N, I141V, G193E, V201I, T206S, I220V, M275Vmutant gene relative to wild type HIV1
[12] = system: Human immunodeficiency virus 1; experiment: Antiviral activity against Human immunodeficiency virus 1 3B harboring integrase L74I mutant infected in human MT4 cells assessed as inhibition of virus induced cytopathic effect relative to wild type HIV1
[13] = system: Human immunodeficiency virus 1; experiment: Antiviral activity against Human immunodeficiency virus 1 clone 17 harboring integrase R20K, A23V, T124N,A129T, I141V, I62T, G193E, V201I, T206S, I220V, D279G mutant gene relative to wild type HIV1
[14] = system: Human immunodeficiency virus 1; experiment: Antiviral activity against Human immunodeficiency virus 1 clone 18_13 harboring integrase G140S mutant and G140S, Q148H site-directed mutation relative to wild type HIV1
[15] = system: Human immunodeficiency virus 1; experiment: Antiviral activity against Human immunodeficiency virus 1 HXB2 assessed as inhibition of virus induced cytopathic effect relative to wild type HIV1
[16] = system: Human immunodeficiency virus 1; experiment: Antiviral activity against Human immunodeficiency virus 1 3B harboring integrase V151I mutant infected in human MT4 cells assessed as inhibition of virus induced cytopathic effect relative to wild type HIV1
[17] = system: Human immunodeficiency virus 1; experiment: Antiviral activity against Human immunodeficiency virus 1 3B harboring integrase V201I mutant infected in human MT4 cells assessed as inhibition of virus induced cytopathic effect relative to wild type HIV1
[18] = system: Human immunodeficiency virus 1; experiment: Antiviral activity against Human immunodeficiency virus 1 3B harboring integrase S230N mutant infected in human MT4 cells assessed as inhibition of virus induced cytopathic effect relative to wild type HIV1
[19] = system: Human immunodeficiency virus 1; experiment: Antiviral activity against Human immunodeficiency virus 1 3B harboring integrase T206S mutant infected in human MT4 cells assessed as inhibition of virus induced cytopathic effect relative to wild type HIV1
[20] = system: Human immunodeficiency virus 1; experiment: Antiviral activity against Human immunodeficiency virus 1 clone 8 harboring integrase E11D, S17T, L45V, M50T, S57G, L74I, K111T, S119G, T125A relative to wild type HIV1
[21] = system: Human immunodeficiency virus 1; experiment: Antiviral activity against Human immunodeficiency virus 1 clone 9 harboring integrase E11D, S17T, L45V, M50T, I72V, L74I, K111T, S119G, relative to wild type HIV1
[22] = system: Human immunodeficiency virus 1; experiment: Antiviral activity against Human immunodeficiency virus 1 clone 4 harboring integrase S17N, S57G, I84I, T124N, T125A, M154I, S195C mutant gene relative to wild type HIV1
[23] = system: Human immunodeficiency virus 1; experiment: Antiviral activity against Human immunodeficiency virus 1 clone 11 harboring integrase S17N, I84I, T124N, T125A, M154I, S195C mutant gene relative to wild type HIV1
[24] = system: Human immunodeficiency virus 1; experiment: Antiviral activity against Human immunodeficiency virus 1 clone 17 harboring integrase S17N, T124N, T125A, M154I, S195C mutant gene relative to wild type HIV1

Row | SMILES | fold change (FC) [1] | fold change (FC) [3] | fold change (FC) [5] | fold change (FC) [6] | fold change (FC) [7] | fold change (FC) [8] | fold change (FC) [9] | fold change (FC) [10] | fold change (FC) [11] | fold change (FC) [13] | fold change (FC) [14] | fold change (FC) [15] | further results
1 | Cc1nnc(C(=O)NC(C)(C)c2nc(C(=O)NCc3ccc(F)cc3)c(O)c(=O)n2C)o1 [RALTEGRAVIR] | 1.1 | 1.5 | 1.2 | 1.7 | 1.5 | 0.8 | 1.8 | 1.8 | 0.5 | 0.3 | 768 | 1 | fold change (FC) [2]: 1.2; fold change (FC) [4]: 2; fold change (FC) [12]: 1.2
2 | COc1cc2c(cc1Cc1cccc(Cl)c1F)c(=O)c(C(=O)O)cn2[C@H](CO)C(C)C [ELVITEGRAVIR] | 1 | 2.7 | 0.5 | 2.5 | 1 | 0.6 | 1.3 | 13 | 0.7 | 0.3 | >633.7 | 1.2 | fold change (FC) [16]: 0.6; fold change (FC) [17]: 0.9; fold change (FC) [18]: 0.8; fold change (FC) [19]: 1.1; fold change (FC) [20]: 0.8; fold change (FC) [21]: 1; fold change (FC) [22]: 1.4; fold change (FC) [23]: 0.9; fold change (FC) [24]: 1
